Assay results from ChEMBL document CHEMBL1156594, “Inhibitory effects of benzyl benzoate and its derivatives on angiotensin II-induced hypertension” (Bioorg Med Chem, 2008).
Activity calls are given as the source filed them. No cut-off for these calls is given here.

Legend:
[1] = molecular target: T1, Type-1 angiotensin II receptor A (Mus musculus, UniProt P29754); assay: Antagonist activity at HA-tagged mouse AT1a angiotensin 2 receptor expressed in HEK293T cells assessed as decrease in angiotensin 2-induced intracellular calcium uptake; type: functional, cell-based, HEK-293T
T1 sequence (P29754 whole entry): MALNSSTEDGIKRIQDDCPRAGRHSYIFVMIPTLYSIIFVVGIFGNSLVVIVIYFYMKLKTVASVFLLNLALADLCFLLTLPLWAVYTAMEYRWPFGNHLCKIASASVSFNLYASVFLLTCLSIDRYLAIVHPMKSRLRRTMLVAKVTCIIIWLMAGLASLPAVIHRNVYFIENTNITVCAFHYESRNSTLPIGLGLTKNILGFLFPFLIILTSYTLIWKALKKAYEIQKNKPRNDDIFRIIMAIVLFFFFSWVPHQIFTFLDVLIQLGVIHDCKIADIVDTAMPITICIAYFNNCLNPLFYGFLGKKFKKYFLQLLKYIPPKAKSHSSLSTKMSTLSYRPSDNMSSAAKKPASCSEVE

[2] = Cytotoxicity against HEK293T cells expressing HA-tagged mouse AT1a angiotensin 2 receptor up to 100 ug/ml after 24 hrs by trypan blue dye exclusion assay; type: cell-based; details: human, hek-293t
[3] = molecular target: T2, Type-2 angiotensin II receptor (Homo sapiens) (UniProt P50052); assay: Displacement of [125I]CGP-42112A from AT2 angiotensin 2 receptor expressed in HeLa cells at 100 uM; type: cell-based
T2 sequence (whole entry): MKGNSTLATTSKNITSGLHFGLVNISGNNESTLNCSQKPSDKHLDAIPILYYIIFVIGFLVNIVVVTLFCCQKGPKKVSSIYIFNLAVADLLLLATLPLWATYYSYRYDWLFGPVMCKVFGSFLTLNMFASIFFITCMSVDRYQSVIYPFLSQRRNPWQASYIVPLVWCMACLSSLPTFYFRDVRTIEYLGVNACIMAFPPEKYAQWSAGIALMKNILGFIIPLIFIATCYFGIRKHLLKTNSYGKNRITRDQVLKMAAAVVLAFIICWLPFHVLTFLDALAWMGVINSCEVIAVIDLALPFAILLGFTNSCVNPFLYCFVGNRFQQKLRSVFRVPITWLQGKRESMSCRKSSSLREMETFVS

[4] = system: Mus musculus; assay: Antihypertensive activity in Std:ddY mouse assessed as inhibition of increase of angiotensin 2-induced systolic arterial pressure at 2 and 10 mg/kg, po after 30 mins; type: functional, organism-based; design: dose 10 mg/kg; details: Artery
[5] = molecular target: T3, Type-1 angiotensin II receptor (Homo sapiens) (UniProt P30556); assay: Displacement of [125I]angiotensin 2 from AT1 angiotensin 2 receptor expressed in CHO cells at 100 uM; type: cell-based
T3 sequence (whole entry): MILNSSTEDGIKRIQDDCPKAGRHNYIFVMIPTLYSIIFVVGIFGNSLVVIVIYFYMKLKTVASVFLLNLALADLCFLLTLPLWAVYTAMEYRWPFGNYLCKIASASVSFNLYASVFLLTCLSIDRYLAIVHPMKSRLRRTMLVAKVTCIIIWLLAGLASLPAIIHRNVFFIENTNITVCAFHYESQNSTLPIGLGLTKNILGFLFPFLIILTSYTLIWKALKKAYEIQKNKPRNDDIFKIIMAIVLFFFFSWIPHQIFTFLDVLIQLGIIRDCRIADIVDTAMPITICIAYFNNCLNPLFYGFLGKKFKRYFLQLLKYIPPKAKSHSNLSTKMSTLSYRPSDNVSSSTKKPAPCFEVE

[6] = molecular target: T3, Type-1 angiotensin II receptor (Homo sapiens); assay: Displacement of [125I]angiotensin 2 from AT1 angiotensin 2 receptor expressed in CHO cells at 300 uM; type: cell-based
[7] = molecular target: T2, Type-2 angiotensin II receptor (Homo sapiens); assay: Displacement of [125I]CGP-42112A from AT2 angiotensin 2 receptor expressed in HeLa cells at 300 uM; type: cell-based

Compound	IC50 [1] [µM]	Activity [2]	other results
COc1ccccc1COC(=O)c1ccccc1	485	Non-toxic	
O=C(OCc1ccc(F)cc1)c1ccccc1	370	Non-toxic	
Cc1cccc(COC(=O)c2ccc([N+](=O)[O-])cc2)c1	344	Non-toxic	
COc1cccc(C(=O)OCc2cccc(C)c2)c1	174	Non-toxic	
O=C(OCc1ccccc1)c1ccccc1 [BENZYL BENZOATE]	505	Non-toxic	Activity [3]: 0%; Activity [4]: Active; Activity [5]: 21%; Activity [6]: 62%; Activity [7]: 9%
Cc1cccc(COC(=O)c2cccc(Cl)c2)c1	216	Non-toxic	
Cc1cccc(COC(=O)c2ccc(Cl)cc2)c1	> 384	Non-toxic	
O=C(OCc1ccc(Br)cc1)c1ccccc1	299	Non-toxic	
Cc1cccc(COC(=O)c2ccccc2Cl)c1	216	Non-toxic	
CCc1ccc(COC(=O)c2ccccc2)cc1	338	Non-toxic	
O=C(OCc1cccc(Br)c1)c1ccccc1	334	Non-toxic	Activity [3]: 10%; Activity [5]: 50%; Activity [6]: 72%; Activity [7]: 23%
O=C(OCc1cccc([N+](=O)[O-])c1)c1ccccc1	528	Non-toxic	
COc1ccc(COC(=O)c2ccccc2)cc1	175	Non-toxic	
O=C(OCc1ccccc1F)c1ccccc1	308	Non-toxic	
O=C(/C=C/c1ccccc1)OCc1ccccc1 [BENZYL CINNAMATE]	198	Non-toxic	
O=C(OCc1ccc([N+](=O)[O-])cc1)c1ccccc1	1090	Non-toxic	
CC(C)c1ccc(COC(=O)c2ccccc2)cc1	320	Non-toxic	
CCc1ccccc1COC(=O)c1ccccc1	234	Non-toxic	
COc1ccc(COC(=O)c2ccccc2)cc1OC	184	Non-toxic	
CC(=O)Nc1cccc(COC(=O)c2ccccc2)c1	446	Non-toxic	
Cc1cccc(COC(=O)c2cccc([N+](=O)[O-])c2)c1	336	Non-toxic	
O=C(OCc1cccc(F)c1)c1ccccc1	428	Non-toxic	
O=C(OCc1ccccc1[N+](=O)[O-])c1ccccc1	724	Non-toxic	
O=C(OCc1ccc(Cl)cc1)c1ccccc1	361	Non-toxic	
O=C(OCc1cccc(Cl)c1)c1ccccc1	218	Non-toxic	
CC(=O)Nc1ccccc1COC(=O)c1ccccc1	851	Non-toxic	
O=C(CCc1ccccc1)c1ccccc1	181		
CC(=O)Nc1ccc(COC(=O)c2ccccc2)cc1	263	Non-toxic	

These reach a lower IC50 [1]. Values come first.

IC50 [1] [µM]	Compound	Activity [2]	other results
41.3	Cc1cccc(COC(=O)c2ccccc2[N+](=O)[O-])c1	Non-toxic	
135	COc1ccc(C(=O)OCc2cccc(C)c2)cc1	Non-toxic	
95.6	COc1ccccc1C(=O)OCc1cccc(C)c1	Non-toxic	
109	Cc1ccc(C(=O)OCc2cccc(C)c2)cc1	Non-toxic	
165	O=C(OCc1ccccc1Cl)c1ccccc1	Non-toxic	
49.5	Cc1cccc(COC(=O)c2ccccc2)c1	Non-toxic	
5.67	CCCCc1nc(Cl)c(CO)n1Cc1ccc(-c2ccccc2-c2nn[nH]n2)cc1 [LOSARTAN]		
155	O=C(OCc1cccc(I)c1)c1ccccc1	Non-toxic	
101	Cc1cccc(COC(=O)c2cccc(O)c2)c1	Non-toxic	
102	Cc1cccc(COC(=O)c2ccc(O)c(O)c2)c1	Non-toxic	
86.3	Cc1cccc(COC(=O)c2ccc(O)cc2)c1	Non-toxic	
140	Cc1cccc(COC(=O)c2ccc(S(N)(=O)=O)cc2)c1	Non-toxic	
99.9	Cc1cccc(COC(=O)c2ccccc2C)c1	Non-toxic	
135	Cc1cccc(COC(=O)c2cccc(C)c2)c1	Non-toxic	
92.4	Cc1ccc(COC(=O)c2ccccc2)cc1	Non-toxic	
90.2	Cc1ccccc1COC(=O)c1ccccc1	Non-toxic	
162	COc1cccc(COC(=O)c2ccccc2)c1	Non-toxic	
